Where two headings read alike, the source gives them in different places.
Experiments:
[1] = target: T1, recombinant human ALK5 (TGF-βR1) protein (Homo sapiens, UniProt P36897); assay: Biochemical ALK5 (TGF-βR1) assay to measure pKi (LANCE Ultra ULight kinase assay); settings: apparent pKi from pIC50 by Cheng-Prusoff
T1 construct: purchased Life Technologies PR9075A
T1 sequence (P36897 34-503): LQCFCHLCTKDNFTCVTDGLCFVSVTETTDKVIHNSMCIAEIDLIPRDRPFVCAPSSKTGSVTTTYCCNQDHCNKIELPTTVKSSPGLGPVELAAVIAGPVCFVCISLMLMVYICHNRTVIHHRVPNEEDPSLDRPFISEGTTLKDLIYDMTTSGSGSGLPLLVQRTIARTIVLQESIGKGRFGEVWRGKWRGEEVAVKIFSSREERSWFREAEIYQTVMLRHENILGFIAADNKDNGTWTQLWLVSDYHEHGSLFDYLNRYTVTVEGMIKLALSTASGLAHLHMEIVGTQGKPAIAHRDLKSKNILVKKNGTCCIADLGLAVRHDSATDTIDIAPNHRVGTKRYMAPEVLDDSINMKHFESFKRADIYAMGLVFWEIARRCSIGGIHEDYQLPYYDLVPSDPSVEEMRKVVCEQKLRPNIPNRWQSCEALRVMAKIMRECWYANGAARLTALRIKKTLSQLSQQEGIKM
Outline: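 Compounds (10 μM to 25 pM) were preincubated 60 min at room temperature with enzyme, then reactions were started with ATP (125 μM stock, 5× final) and run 60 min at 37 °C. EDTA-containing Eu-anti-phospho-Topo IIα (Thr1342) antibody stopped the reaction; TR-FRET read at 665 nm. pIC50 from 4-parameter fit, converted to pKi via Cheng-Prusoff.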

[2] = test system: TGF-β-stimulated SMAD3 phosphorylation in BEAS-2B cells; assay: Cellular ALK5 potency assay, inhibition of TGF-β stimulated pSMAD3 formation in BEAS-2B cells; assay type: cell-based; settings: Homo sapiens, read-out: BEAS2B pIC50 (converted)
Outline: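 AlphaLISA pSMAD3 read-out, beads incubated overnight. Human BEAS-2B cells: 1 h compound preincubation (37 °C, 5% CO2), then 30 min TGF-β at 10 ng/mL final, immediate lysis. Values are pIC50 relative to stimulated, compound-free baseline.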

[3] = inhibition of TGF-β stimulated pSMAD3 formation, BEAS-2B cells

## Cc1nc(-c2n[nH]cc2-c2ccc3ncc(-c4c(C)nn5c4NCCC5)cc3n2)ccc1F [Compound 504, 2-[3-(5-fluoro-6-methyl-2-pyridyl)-1H-pyrazol-4-yl]-7-(2-methyl-4,5,6,7-tetrahydropyrazolo[1,5-a]pyrimidin-3-yl)-1,5-naphthyridine]
[1]; read-out: ALK5 pKi (converted)
  Ki: 0.398 to 3.16 nM
[2]; [3]
  IC50: 25.1 to 158 nM

## Cc1cccc(-c2n[nH]cc2-c2ccc3ncc(N4CCC(N5CCOCC5)CC4)cc3n2)n1 [Compound 250, 4-[1-[6-[3-(6-methyl-2-pyridyl)-1H-pyrazol-4-yl]-1,5-naphthyridin-3-yl]-4-piperidyl]morpholine]
[1]; read-out: ALK5 pKi (converted)
  Ki: < 0.0316 nM
[2]; [3]
  IC50: 25.1 to 158 nM

## Cc1cccc(-c2[nH]cnc2-c2ccc3ncc(-c4csc(C(=O)OCCNC5CNC5)c4)cc3c2)n1 [Compound 1235, 2-(azetidin-3-ylamino)ethyl 4-[6-[5-(6-methyl-2-pyridyl)-1H-imidazol-4-yl]-3-quinolyl]thiophene-2-carboxylate]
[1]; read-out: ALK5 pKi (converted)
  Ki: 0.0398 to 0.316 nM
[2]; [3]
  IC50: 25.1 to 158 nM

## Cc1cccc(-c2n[nH]cc2-c2ccc3ncc(-c4ncc5n4CCN5)cc3n2)n1 [Compound 641, 7-(2,3-dihydro-1H-imidazo[1,5-a]imidazol-5-yl)-2-[3-(6-methyl-2-pyridyl)-1H-pyrazol-4-yl]-1,5-naphthyridine]
[1]; read-out: ALK5 pKi (converted)
  Ki: 0.0398 to 0.316 nM
[2]; [3]
  IC50: 25.1 to 158 nM

## CNCCN1CCn2cc(-c3cnc4ccc(-c5c[nH]nc5-c5cccc(C)n5)nc4c3)nc2C1 [Compound 262, N-methyl-2-[2-[6-[3-(6-methyl-2-pyridyl)-1H-pyrazol-4-yl]-1,5-naphthyridin-3-yl]-6,8-dihydro-5H-imidazo[1,2-a]pyrazin-7-yl]ethanamine]
[1]; read-out: ALK5 pKi (converted)
  Ki: 0.0398 to 0.316 nM
[2]; [3]
  IC50: 200 to 1260 nM

## Cc1cccc(-c2n[nH]cc2-c2ccc3nccc(CN4CC(N5CCOCC5)C4)c3n2)n1 [Compound 850, 4-[1-[[6-[3-(6-methyl-2-pyridyl)-1H-pyrazol-4-yl]-1,5-naphthyridin-4-yl]methyl]azetidin-3-yl]morpholine]
[1]; read-out: ALK5 pKi (converted)
  Ki: 0.398 to 3.16 nM
[2]; [3]
  IC50: 200 to 1260 nM

## Cc1cccc(-c2[nH]cnc2-c2ccc3ncc(NCCN4CC5(CCNCC5)C4)cc3c2)n1 [Compound 735, N-[2-(2,7-diazaspiro[3.5]nonan-2-yl)ethyl]-6-[5-(6-methyl-2-pyridyl)-1H-imidazol-4-yl]quinolin-3-amine]
[1]; read-out: ALK5 pKi (converted)
  Ki: 0.0398 to 0.316 nM
[2]; [3]
  IC50: 200 to 1260 nM

## Cc1nc(-c2nc3ccccn3c2-c2ccc3ncc(-c4cc5n(n4)CCNC5)cc3n2)ccc1F [Compound 558, 2-[2-(5-fluoro-6-methyl-2-pyridyl)imidazo[1,2-a]pyridin-3-yl]-7-(4,5,6,7-tetrahydropyrazolo[1,5-a]pyrazin-2-yl)-1,5-naphthyridine]
[1]; read-out: ALK5 pKi (converted)
  Ki: 0.0398 to 0.316 nM
[2]; [3]
  IC50: 25.1 to 158 nM

## Cc1cccc(-c2n[nH]cc2-c2ccc3ncc(N4CCC5NCCC5C4)cc3n2)n1 (stereo not shown) [Compound 151, 7-(1,2,3,3a,4,6,7,7a-octahydropyrrolo[3,2-c]pyridin-5-yl)-2-[3-(6-methyl-2-pyridyl)-1H-pyrazol-4-yl]-1,5-naphthyridine]
[1]; read-out: ALK5 pKi (converted)
  Ki: 0.0398 to 0.316 nM
[2]; [3]
  IC50: 25.1 to 158 nM

## Cc1cccc(-c2n[nH]cc2-c2ccc3ncc(C4C[C@H]5CC[C@@H](C4)N5)cc3n2)n1 (mixture of isomers) [Compound 350, 2-[3-(6-methyl-2-pyridyl)-1H-pyrazol-4-yl]-7-[rac-(1S,5R)-8-azabicyclo[3.2.1]octan-3-yl]-1,5-naphthyridine]
[1]; ALK5 pKi
  Ki: 3.98 to 31.6 nM
[2]; BEAS-2B
  IC50: 200 to 1260 nM

## Cc1cccc(-c2n[nH]cc2-c2ccc3ncc(N4CCC(N(C)C)C4)cc3n2)n1 (racemic) [Compound 505, rac-(3S)-N,N-dimethyl-1-[6-[3-(6-methyl-2-pyridyl)-1H-pyrazol-4-yl]-1,5-naphthyridin-3-yl]pyrrolidin-3-amine]
[1]; read-out: ALK5 pKi (converted)
  Ki: < 0.0316 nM
[2]; [3]
  IC50: 25.1 to 158 nM

## Cc1cccc(-c2[nH]cnc2-c2ccc3ncc(-c4ncc(C(=O)O[C@@H]5CCNC5)s4)cc3c2)n1 [Compound 1166, [(3R)-pyrrolidin-3-yl] 2-[6-[5-(6-methyl-2-pyridyl)-1H-imidazol-4-yl]-3-quinolyl]thiazole-5-carboxylate]
[1]; read-out: ALK5 pKi (converted)
  Ki: 0.0398 to 0.316 nM
[2]; [3]
  IC50: 25.1 to 158 nM

## Cc1cccc(-c2n[nH]cc2-c2ccc3ncc(NCCN4C(C)CNCC4C)cc3n2)n1 (stereo not shown) [Compound 183, N-[2-(2,6-dimethylpiperazin-1-yl)ethyl]-6-[3-(6-methyl-2-pyridyl)-1H-pyrazol-4-yl]-1,5-naphthyridin-3-amine]
[1]; read-out: ALK5 pKi (converted)
  Ki: 0.0398 to 0.316 nM
[2]; [3]
  IC50: 200 to 1260 nM

## Cc1cccc(-c2[nH]cnc2-c2ccc3ncc(-c4csc(C(=O)OC5CNC5)c4)cc3c2)n1 [Compound 752, azetidin-3-yl 4-[6-[5-(6-methyl-2-pyridyl)-1H-imidazol-4-yl]-3-quinolyl]thiophene-2-carboxylate]
[1]; read-out: ALK5 pKi (converted)
  Ki: 0.0398 to 0.316 nM
[2]; [3]
  IC50: 25.1 to 158 nM

## Cc1cccc(-c2[nH]cnc2-c2ccc3ncc(C(=O)OC[C@H]4CCCN4)cc3c2)n1 [Compound 760, [(2R)-pyrrolidin-2-yl]methyl 6-[5-(6-methyl-2-pyridyl)-1H-imidazol-4-yl]quinoline-3-carboxylate]
[1]; read-out: ALK5 pKi (converted)
  Ki: 0.398 to 3.16 nM
[2]; [3]
  IC50: 25.1 to 158 nM

## Cc1cccc(-c2[nH]cnc2-c2ccc3ncc(NCC(=O)O)cc3c2)n1 [Compound 1162, 2-[[6-[5-(6-methyl-2-pyridyl)-1H-imidazol-4-yl]-3-quinolyl]amino]acetic acid]
[1]; read-out: ALK5 pKi (converted)
  Ki: 0.398 to 3.16 nM
[2]; [3]
  IC50: 200 to 1260 nM

## Cc1cccc(-c2nnn(Cc3ccccc3)c2-c2ccc3ncc(N4CCNCC4)cc3c2)n1 [Compound 382, 6-[3-benzyl-5-(6-methyl-2-pyridyl)triazol-4-yl]-3-piperazin-1-yl-quinoline]
[1]; read-out: ALK5 pKi (converted)
  Ki: 0.0398 to 0.316 nM
[2]; [3]
  IC50: 25.1 to 158 nM

## Cc1nc(-c2n[nH]cc2-c2ccc3ncc(-c4cnn(C[C@H]5CC[C@H](N)CC5)c4)cc3n2)ccc1F [Compound 551, 4-[[4-[6-[3-(5-fluoro-6-methyl-2-pyridyl)-1H-pyrazol-4-yl]-1,5-naphthyridin-3-yl]pyrazol-1-yl]methyl]cyclohexanamine]
[1]; read-out: ALK5 pKi (converted)
  Ki: < 0.0316 nM
[2]; [3]
  IC50: 25.1 to 158 nM

## Cc1cccc(-c2n[nH]cc2-c2ccc3ncc(N4CCCNCC4)cc3c2)n1 [Compound 580, 3-(1,4-diazepan-1-yl)-6-[3-(6-methyl-2-pyridyl)-1H-pyrazol-4-yl]quinoline]
[1]; read-out: ALK5 pKi (converted)
  Ki: 0.0398 to 0.316 nM
[2]; [3]
  IC50: 25.1 to 158 nM

## Cc1nc(-c2n[nH]cc2-c2ccc3ncc(N4CCC(N5CCN(C)CC5)CC4)cc3c2)ccc1F [Compound 93, 6-[3-(5-fluoro-6-methyl-2-pyridyl)-1H-pyrazol-4-yl]-3-[4-(4-methylpiperazin-1-yl)-1-piperidyl]quinoline]
[1]; read-out: ALK5 pKi (converted)
  Ki: < 0.0316 nM
[2]; [3]
  IC50: 25.1 to 158 nM

## Cc1cccc(-c2[nH]nnc2-c2ccc3ncc(-c4c[nH]nc4C(F)(F)F)cc3n2)n1 [Compound 521, 2-[5-(6-methyl-2-pyridyl)-1H-triazol-4-yl]-7-[3-(trifluoromethyl)-1H-pyrazol-4-yl]-1,5-naphthyridine]
[1]; read-out: ALK5 pKi (converted)
  Ki: 0.398 to 3.16 nM
[2]; [3]
  IC50: 25.1 to 158 nM

## COC[C@H]1CN(CCNc2cnc3ccc(-c4nc[nH]c4-c4cccc(C)n4)cc3c2)CCN1 [Compound 37, N-[2-[(3R)-3-(methoxymethyl)piperazin-1-yl]ethyl]-6-[5-(6-methyl-2-pyridyl)-1H-imidazol-4-yl]quinolin-3-amine]
[1]; read-out: ALK5 pKi (converted)
  Ki: 0.0398 to 0.316 nM
[2]; [3]
  IC50: 25.1 to 158 nM

## Cc1cccc(-c2n[nH]cc2-c2ccc3ncc(-c4cn[nH]c4)cc3n2)n1 [Compound 233, 2-[3-(6-methyl-2-pyridyl)-1H-pyrazol-4-yl]-7-(1H-pyrazol-4-yl)-1,5-naphthyridine]
[1]; read-out: ALK5 pKi (converted)
  Ki: < 0.0316 nM
[2]; [3]
  IC50: < 20 nM
